Test [1] concerns Aspergillus fumigates RCPF F-1248/880. Nature of the test: Antifungal activity, 2-fold serial dilutions in Saburo glucose broth. Conditions: for MIC: Aspergillus. Format: cell-based, Asp. fumigates. How it is done:
The study of the antifungal activity of compound I in vitro was carried out in accordance with [Metodicheskiye rekomendatsii No 2. Mikologicheskoye issledovaniye ob″yektov okruzhayushchey sredy i opredeleniye protivogribkovoy aktivnosti razlichnykh veshchestv.—GOU DPO SPbMAPO NII meditsinskoy mikologii im. P. N. Kashkina, GBOU VPO SZGMU im. I. I. Mechnikova Minzdrava. SPb.: Izd. Dom SPbMAPO.—2008.—S. 16. Methodological recommendations No 2. Mycological examination of environmental objects and determination of antifungal activity of various substances.—State Educational Institution of St. Petersburg Medical Academy of Postgraduate Education with Scientific Research Institute of Medical Mycology named after P. N. Kashkin, State Educational Institution of Higher Professional Education North-West State Medical University named after I. I. Mechnikov, Ministry of Health. St. Petersburg.:: Publishing House SPbMAPO.—2008.—P. 16].
The study of the antifungal activity of substances in vitro was carried out in a liquid nutrient medium (Saburo glucose broth) in biological tubes by the method of 2-fold serial dilutions. In test tubes, three parallel series of dilutions of the test substance were prepared in the following way.
Saburo's liquid broth was sterilely poured in 3 ml into each tube; 4.5 ml was poured into the first tube of the row. A total of 14 tubes were used in a row; of which the last was a control one. […] The growth of cultures was initially assessed visually, comparing the growth of microorganisms in the presence of test compounds with the growth of culture without them. […] The first lowest concentration of the substance (from a series of consecutive dilutions), where the growth of fungi was suppressed or not visually determined, was considered the minimum inhibitory concentration (MIC).
For the preparation of inoculum, were respectively used pure (2-5) days cultures of yeast and mycelial fungi, grown on Saburo's dense nutrient broth. […] The inoculum was used within 15 minutes after preparation; the purity of the fungal strains was monitored before each experiment. […]

The next test relates to Rh. Oryzae. Nature of the test: Sensitivity of microscopic fungi in solution (colonies after exposure). Format: cell-based. How it is done: For the preparation of inoculum, were respectively used pure (2-5) days cultures of yeast and mycelial fungi, grown on Saburo's dense nutrient broth. Inoculum for plating was prepared in different ways, depending on the type of fungi. Thus, yeast crops (C. albicans) were prepared by washing the culture from an agar stroke. Cultures of mycelial fungi (Rh. oryzae, Asp. fumigatus) were pre-degraded in a pounder. A suspension of microorganisms was prepared in a sterile isotonic sodium chloride solution, bringing the inoculum density to 5 UNITS (GISK [State Research Institute of Standardization and Control] named after L. A. Tarasevich) or according to the McFarland standard 1 UNIT with a concentration of at least 1×10^6 CFU/ml, considering that the size of the fungal elements is approximately 10 times the size of bacteria (this provided the possibility of creating a mixture of biocide with suspension, the concentration of microorganisms of the order of 1×10^5 CFU/ml).
Solutions of compound I, miramistin, and benzalkonium chloride in working concentrations (0.1%, 0.2%, 0.3%) were poured into sterile 0.9 ml tubes. 0.1 ml of microbial suspension was added to test tubes with disinfectant solutions and mixed by shaking for several seconds. The exposition lasted for 1, 5, and 15 minutes. After required temporary exposure for action of the disinfectant, 0.5 ml of the neutralizer solution was added and mixed by shaking.
Then, 0.1 ml of the mixture was inoculated on a dense nutrient medium and the plates with inoculate were placed in a thermostat with a temperature of 27° C. for (2-4) days for yeast and (5-7) days for mycelial fungi, respectively.
After the time required for the cultivation of microorganisms of this species, the results were counted according to the number of colonies grown on the Petri dish. In the absence of growth, the time for culturing microorganisms was increased by a factor of 2. The grown colonies were subjected to microscopy.
The tested substances were studied on clinical and archival strains of yeast and mycelial fungi. As comparison drugs, drugs commonly used in clinical practice were used: miramistin and benzalconium chloride. After the required exposure time for action of the disinfectant, a series of 0.1 ml mixture was aseptically plated on the surface of a dense nutrient medium in Petri dishes. After the time of cultivation of microorganisms, the results were counted according to the number of colonies grown on the Petri dish.

Like-named read-outs stand apart in the source and are kept apart here.

In general, MIC refers to the lowest concentration found to suppress growth. `CCCCCCCCCCCC[N+](C)(C)Cc1cnc(C[N+](C)(C)CCCCCCCCCCCC)c2c1COC(CC)O2` (centres unmarked) [Compound I, 5,8-(Bis(methylene (N, N-dimethyl-N-dodecylammonium))-2-ethyl-4H-[1,3]dioxino [4,5-c]pyridiniumdichloride]: the MIC in test [1] (RCPFF1248/880, Asp. fumigates RCPF F-l248/880, read-out: The value of the MIC) came out at 62.5 µg/mL. Besides, the “Number of colonies grown in a Petri dish” value in the test with Rh. Oryzae (exposure 1 min, 0.1% solution) is reported as 1.
`CCCCCCCCCCCCCC(=O)NCCC[N+](C)(C)Cc1ccccc1.O.[Cl-]` [Miramistin, benzyldimethyl [3-(myristoylamino)propyl]-ammonium chloride monohydrate]: in test [1] (RCPFF1248/880, read-out: The value of the MIC), the MIC was 31.2 µg/mL. Besides, the “Number of colonies grown in a Petri dish” value in the test with Rh. Oryzae (exposure 1 min, 0.1% solution) amounted to 12; with Rh. Oryzae (exposure 1 min, 0.2% solution) it was 2; in the test on Rh. Oryzae (exposure 1 min, 0.3% solution) it was 1; with Rh. Oryzae (exposure 5 min, 0.1% solution) it was 10; in the test on Rh. Oryzae (exposure 5 min, 0.2% solution), 4; with Rh. Oryzae (exposure 15 min, 0.1% solution), 2.
As for “alkyldimethyl(phenylmethyl) ammonium chloride [Benzalconium chloride]”, the “The value of the MIC” value in test [1] (Asp. fumigates RCPF F-l248/880) stood at 15.6 µg/mL. Besides, in the test on Rh. Oryzae (exposure 1 min, 0.1% solution), the “Number of colonies grown in a Petri dish” value is 1.

For the origin of these results see patent US11014934B2, “Antiseptic drug” (AO “TATKHIMFARMPREPARATY”, priority 2017, dated 2021).
